In series [1] the test system is A549. Put plainly: Antiproliferative activity against human A549 cells assessed as reduction in cell viability. In kind it is functional, cell-based.
The subject of another series is HCT-116. Put plainly: cells. Conditions: Homo sapiens.
For series [2], the target named is T1, Glutaminase kidney isoform, mitochondrial (Homo sapiens, UniProt O94925).
T1 sequence (O94925 whole entry): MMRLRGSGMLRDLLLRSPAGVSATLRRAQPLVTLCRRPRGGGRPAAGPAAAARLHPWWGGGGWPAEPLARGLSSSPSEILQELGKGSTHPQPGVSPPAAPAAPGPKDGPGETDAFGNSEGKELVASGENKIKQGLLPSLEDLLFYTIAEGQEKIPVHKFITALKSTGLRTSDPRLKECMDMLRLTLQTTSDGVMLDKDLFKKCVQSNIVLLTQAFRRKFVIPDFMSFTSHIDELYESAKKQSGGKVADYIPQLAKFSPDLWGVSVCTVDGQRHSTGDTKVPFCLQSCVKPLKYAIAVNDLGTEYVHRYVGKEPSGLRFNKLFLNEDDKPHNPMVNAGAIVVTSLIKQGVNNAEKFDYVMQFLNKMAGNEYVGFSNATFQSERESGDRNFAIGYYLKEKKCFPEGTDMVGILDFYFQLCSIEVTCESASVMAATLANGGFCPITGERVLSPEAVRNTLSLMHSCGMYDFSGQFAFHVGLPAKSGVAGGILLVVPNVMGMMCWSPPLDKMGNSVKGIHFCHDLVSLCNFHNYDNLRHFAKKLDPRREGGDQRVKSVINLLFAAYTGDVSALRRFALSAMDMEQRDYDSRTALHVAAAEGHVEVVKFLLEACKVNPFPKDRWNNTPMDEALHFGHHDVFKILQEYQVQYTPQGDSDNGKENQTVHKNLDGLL
Put plainly: Inhibition of GLS1 (unknown origin).

The conditions of series [3]: human, microsomes.
Description: Metabolic stability in human liver microsome assessed as intrinsic clearance
For series [4], the target named is T2, Glutaminase liver isoform, mitochondrial (Homo sapiens, UniProt Q9UI32).
T2 sequence (Q9UI32 whole entry): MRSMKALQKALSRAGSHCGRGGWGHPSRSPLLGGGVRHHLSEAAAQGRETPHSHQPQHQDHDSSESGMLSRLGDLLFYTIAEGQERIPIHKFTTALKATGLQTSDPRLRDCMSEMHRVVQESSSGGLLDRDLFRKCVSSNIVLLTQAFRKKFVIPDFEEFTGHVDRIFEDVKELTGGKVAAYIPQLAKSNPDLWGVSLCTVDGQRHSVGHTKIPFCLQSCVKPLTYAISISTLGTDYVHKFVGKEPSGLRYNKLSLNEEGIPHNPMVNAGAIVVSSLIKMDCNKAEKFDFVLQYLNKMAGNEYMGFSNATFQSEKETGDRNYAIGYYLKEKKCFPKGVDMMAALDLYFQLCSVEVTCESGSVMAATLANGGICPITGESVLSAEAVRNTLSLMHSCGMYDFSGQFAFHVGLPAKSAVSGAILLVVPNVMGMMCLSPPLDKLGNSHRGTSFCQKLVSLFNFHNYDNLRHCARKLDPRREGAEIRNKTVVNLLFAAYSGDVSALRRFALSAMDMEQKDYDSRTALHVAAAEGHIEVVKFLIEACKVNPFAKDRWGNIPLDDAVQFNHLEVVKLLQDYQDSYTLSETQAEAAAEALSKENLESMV
Description: Inhibition of GLS2 (unknown origin).

Series [5] concerns A549. Put plainly: Inhibition of glutaminase in human A549 cells assessed as ratio of glutamine to glutamate level (Rv b= 0.45 +/- 0.011). The class given is cell-based.
The species named for another series is Homo sapiens. Description: Selectivity ratio of IC50 for GLS2 (unknown origin) to IC50 for GLS1 (unknown origin).
The next series is described as follows: in vitro. Conditions: human, liver microsomes.

The source of these data is ChEMBL document CHEMBL5352409, “Design, synthesis, and pharmacological evaluation of 2-(1-(1,3,4-thiadiazol-2-yl)piperidin-4-yl)ethan-1-ol analogs as novel glutaminase 1 inhibitors” (Eur J Med Chem, 2022).

As to `C=CCCC(=O)N1CCC(CNC(=O)c2cccc(COCCC3CCN(c4nnc(NC(=O)Cc5ccccc5)s4)CC3)c2)CC1`, the IC50 amounted to 3.52 µM in the series with A549 [1], 4.03 µM in the series on HCT-116 and 0.35 µM in series [2].
On to `CN1CCN(c2cccc(NC(=O)c3ccc(COCCC4CCN(c5nnc(NC(=O)Cc6ccccc6)s5)CC4)cc3)c2)CC1`, for which the half-inhibitory concentration (IC50) with A549 [1] was 0.65 µM; in series [4], over 15 µM; in the series with HCT-116, 0.26 µM; in series [2] it was 0.062 µM. The CLH in series [3] is 35.8 g/mL/min. The Ratio in the series with A549 [5] is 0.74. In the series filed under Homo sapiens, the Ratio IC50 is over 100. In the series “in vitro”, the half-life was over 2 h.
In the case of `O=C(Cc1ccccc1)Nc1nnc(N2CCN(Cc3ccc(C(=O)NCCc4ccc(F)cc4)cc3)CC2)s1`, the figures for the IC50 (with A549 [1]; in the series with HCT-116; in series [2]) were 2.04 µM, 0.57 µM and 0.3 µM, respectively.
For `CC(C)N1CCC(CNC(=O)c2ccc(COCCC3CCN(c4nnc(NC(=O)Cc5ccccc5)s4)CC3)cc2)CC1`, in that order: 2.24 µM, 3.05 µM and 0.365 µM.
For `COCCNC(=O)c1ccc(CN2CCN(c3nnc(NC(=O)Cc4ccccc4)s3)CC2)cc1`, in that order: over 10 µM, over 10 µM and over 10 µM.
For `CCCCN1CCC(CNC(=O)c2cccc(COCCC3CCN(c4nnc(NC(=O)Cc5ccccc5)s4)CC3)c2)CC1`, in that order: 1.55 µM, 1.08 µM and 0.16 µM.
As to `O=C(Cc1ccccc1)Nc1nnc(N2CCC(CCOCc3cccc(C(=O)NCC4CCN(Cc5cc(F)cc(F)c5)CC4)c3)CC2)s1`, the IC50 in the series with A549 [1] came out at 0.98 µM; with HCT-116 it was 0.69 µM; in series [2], 0.126 µM.
The corresponding values for `O=C(Cc1ccccc1)Nc1nnc(N2CCC(CCOCc3cccc(C(=O)NCCN4CCCCC4)c3)CC2)s1` are 8.52 µM, 7.05 µM and 0.555 µM.
The corresponding values for `CCN(CC)CCNC(=O)c1ccc(CN2CCN(c3nnc(NC(=O)Cc4ccccc4)s3)CC2)cc1` are 2.07 µM, 2.86 µM and 0.264 µM.
The corresponding values for `CN1CCC(CNC(=O)c2cccc(COCCC3CCN(c4nnc(NC(=O)Cc5ccccc5)s4)CC3)c2)CC1` are 9.07 µM, 8.12 µM and 0.802 µM.
For `O=C(Cc1ccccc1)Nc1nnc(N2CCC(OCc3ccc(C(=O)NCCN4CCCC4)cc3)CC2)s1`, the IC50 was 1.25 µM with A549 [1], 3.81 µM in the series with HCT-116 and 1.25 µM in series [2].
Turning to `O=C(Cc1ccccc1)Nc1nnc(CCc2ccc(C(=O)N3CCCCC3)cc2)s1`, the IC50 (in the series with A549 [1]; with HCT-116; in series [2]) was over 10 µM each time.
Turning to `CN1CCC(CNC(=O)c2ccc(COC3CCN(c4nnc(NC(=O)Cc5ccccc5)s4)CC3)cc2)CC1`, the IC50 (in the series with A549 [1]; in the series with HCT-116; in series [2]) was over 10 µM in each case.
For `CCN1CCC(NC(=O)c2ccc(COC3CCN(c4nnc(NC(=O)Cc5ccccc5)s4)CC3)cc2)CC1`, the IC50 in the series on A549 [1] was over 10 µM; in the series on HCT-116, over 10 µM; in series [2], 2.55 µM.
Consider `CN1CCN(c2cccc(NC(=O)c3ccc(CN4CCN(c5nnc(NC(=O)Cc6ccccc6)s5)CC4)cc3)c2)CC1`, for which the IC50 in the series on A549 [1] was 0.97 µM; in series [4], over 15 µM; in the series with HCT-116 it was 0.52 µM; in series [2] it was 0.079 µM. Besides, the CLH in series [3] was 60.3 g/mL/min. Besides, in the series with A549 [5], the Ratio stood at 1.1. Moreover, the Ratio IC50 in the series filed under Homo sapiens is over 100. The compound further registered a half-life in the series “in vitro” of 1.04 h.
Take `O=C(Cc1ccccc1)Nc1nnc(N2CCC(CCOCc3cccc(C(=O)NCCN4CCCC4)c3)CC2)s1`: the concentration for half-maximal inhibition (IC50) is 9.68 µM in the series on A549 [1], 8.95 µM with HCT-116 and 0.489 µM in series [2].
The corresponding values for `CCN(CC)CCNC(=O)c1cccc(CN2CCN(c3nnc(NC(=O)Cc4ccccc4)s3)CC2)c1` are 2.42 µM, 1.49 µM and 0.345 µM.
With `CCCCCCN1CCC(CNC(=O)c2ccc(COCCC3CCN(c4nnc(NC(=O)Cc5ccccc5)s4)CC3)cc2)CC1`, the IC50 in the series with A549 [1] was 0.74 µM; in series [4] it was over 15 µM; in the series with HCT-116, 0.34 µM; in series [2], 0.088 µM. The CLH in series [3] was determined as 22.3 g/mL/min. In addition, the Ratio in the series with A549 [5] is 1.42. In the series filed under Homo sapiens, the Ratio IC50 was over 100. In addition, the half-life in the series “in vitro” is over 2 h.
Turning to `CN1CCC(CNC(=O)c2cccc(CN3CCN(c4nnc(NC(=O)Cc5ccccc5)s4)CC3)c2)CC1`, the figures for the IC50 (with A549 [1]; with HCT-116; in series [2]) were 3.96 µM, 1.56 µM and 0.432 µM, respectively.
For `O=C(Cc1ccccc1)Nc1nnc(N2CCN(Cc3ccc(C(=O)NC4CCCC4)cc3)CC2)s1`, in that order: 1.09 µM, 1.49 µM and 0.132 µM.
For `CCN(CC)CCNC(=O)c1ccc(CCc2nnc(NC(=O)Cc3ccccc3)s2)cc1`, in that order: over 10 µM, over 10 µM and over 10 µM.
Regarding `CN1CCC(CNC(=O)c2ccc(CN3CCN(c4nnc(NC(=O)Cc5ccccc5)s4)CC3)cc2)CC1`, the 50% inhibitory concentration (IC50) (with A549 [1]; in the series on HCT-116; in series [2]) was over 10 µM in each case.
For `CCCNC(=O)c1ccc(CCc2nnc(NC(=O)Cc3ccccc3)s2)cc1`, the IC50 (with A549 [1]; in the series with HCT-116; in series [2]) was over 10 µM each time.
On to `O=C(Cc1ccccc1)Nc1nnc(N2CCN(Cc3ccc(C(=O)NCCNc4ccccc4)cc3)CC2)s1`, for which the values for the concentration for half-maximal inhibition (IC50) (with A549 [1]; with HCT-116; in series [2]) were 1.22 µM, 1.09 µM and 0.106 µM, respectively.
For `CCNCCNC(=O)c1ccc(CN2CCN(c3nnc(NC(=O)Cc4ccccc4)s3)CC2)cc1`, in that order: 2.26 µM, 1.28 µM and 0.221 µM.
As for `CCCNC(=O)c1ccc(COC2CCN(c3nnc(NC(=O)Cc4ccccc4)s3)CC2)cc1`, the IC50 came out at 1.08 µM with A549 [1], 4.08 µM in the series on HCT-116 and 1.08 µM in series [2].
Turning to `CN1CCN(c2cccc(C(=O)Nc3cccc(CN4CCN(c5nnc(NC(=O)Cc6ccccc6)s5)CC4)c3)c2)CC1`, the half-inhibitory concentration (IC50) in the series with A549 [1] was determined as 0.98 µM; in the series on HCT-116, 1.19 µM; in series [2] it was 0.077 µM.
As to `O=C(Cc1ccccc1)Nc1nnc(N2CCN(Cc3ccc(C(=O)NCCN4CCCC4)cc3)CC2)s1`, the IC50 in the series on A549 [1] was 3.65 µM; with HCT-116 it was 1.66 µM; in series [2], 0.163 µM.
In the case of `CC(C)CNC(=O)c1ccc(CN2CCN(c3nnc(NC(=O)Cc4ccccc4)s3)CC2)cc1`, the figures for the IC50 (in the series on A549 [1]; in the series with HCT-116; in series [2]) were 2.53 µM, 1.09 µM and 0.146 µM, respectively.
For `CCCN1CCC(CNC(=O)c2cccc(COCCC3CCN(c4nnc(NC(=O)Cc5ccccc5)s4)CC3)c2)CC1`, in that order: 2.01 µM, 3.92 µM and 0.26 µM.
For `CCN(CC)CCNC(=O)c1cccc(COCCC2CCN(c3nnc(NC(=O)Cc4ccccc4)s3)CC2)c1`, in that order: 7.51 µM, 9.03 µM and 0.621 µM.
The corresponding values for `Cc1ccccc1CN1CCC(CNC(=O)c2ccc(COCCC3CCN(c4nnc(NC(=O)Cc5ccccc5)s4)CC3)cc2)CC1` are 1.26 µM, 0.81 µM and 0.135 µM.
For `Cc1ccc(NC(=O)c2ccc(CN3CCN(c4nnc(NC(=O)Cc5ccccc5)s4)CC3)cc2)cc1`, the results for the IC50 (in the series with A549 [1]; in the series on HCT-116; in series [2]) were 1.68 µM, 1.08 µM and 0.212 µM, respectively.
Regarding `CN1CCN(c2cccc(C(=O)Nc3ccc(CN4CCN(c5nnc(NC(=O)Cc6ccccc6)s5)CC4)cc3)c2)CC1`, the concentration for half-maximal inhibition (IC50) in the series with A549 [1] was determined as 1.05 µM; in the series with HCT-116, 1.26 µM; in series [2], 0.123 µM.
